This is an account of results in PMC6767355 (Journal of Medicinal Chemistry, 2019).

SMILES strings stand for the structures. Where two headings read alike, the source gives them in different places.

Experiment [1] addresses T1, OXA-10 (Pseudomonas aeruginosa, UniProt P14489).
T1 construct: made in house
The following applies: cited from earlier work.

The target of experiment [2] is T2, CphA (Aeromonas hydrophila, UniProt P26918).
T2 construct: made in house
The following applies: cited from earlier work.

In experiment [3] the target is T3, L1 (Stenotrophomonas maltophilia, UniProt P52700).
T3 construct: made in house
The settings on record: cited from earlier work.

For experiment [4], the system named is six NDM-1-producing clinical isolates of Escherichia coli and Klebsiella pneumoniae. In words: Antimicrobial susceptibility testing, MIC, summary over six clinical isolates. Type of experiment: cell-based. The following applies: read-out: MIC in the absence of VNRX-5133; all six NDM-1-producing isolates. The procedure: (§1) Minimal inhibitory concentration (MIC) values were determined by the agar dilution method and interpreted using published guidelines described by EUCAST/CLSI.[57] All reported MIC values are within ±1 log2 dilution of the reference MIC values.

For experiment [5], the system named is NDM-1-producing Klebsiella pneumoniae clinical isolates. The experiment can be described thus: Antimicrobial susceptibility testing, MIC by agar dilution. It counts as cell-based. The settings on record: antibiotic alone; for MIC: Klebsiella pneumoniae, strain B64, Kp, read-out: Cef/MEM MIC. The procedure: as §1
On the technique in general: Agar dilution tests growth on a series of plates holding different concentrations.

Experiment [6] relates to NDM-1-producing Escherichia coli clinical isolates. Described as above. Type of experiment: cell-based. The following applies: antibiotic alone; for MIC: Escherichia coli, strain S117, Ec, read-out: Cef/MEM MIC. The procedure:
as §1

In experiment [7] the target is T3, L1. In words: β-lactamase inhibition, fluorogenic FC5 hydrolysis assay. It counts as biochemical.
Experiment [8] addresses T4, NDM-1 (Klebsiella pneumoniae, UniProt C7C422).
T4 construct: made in house
Type of experiment: biochemical. The following applies: pre-incubation 0-180 min; supports reversible inhibition.

T3 sequence (P52700 34-290): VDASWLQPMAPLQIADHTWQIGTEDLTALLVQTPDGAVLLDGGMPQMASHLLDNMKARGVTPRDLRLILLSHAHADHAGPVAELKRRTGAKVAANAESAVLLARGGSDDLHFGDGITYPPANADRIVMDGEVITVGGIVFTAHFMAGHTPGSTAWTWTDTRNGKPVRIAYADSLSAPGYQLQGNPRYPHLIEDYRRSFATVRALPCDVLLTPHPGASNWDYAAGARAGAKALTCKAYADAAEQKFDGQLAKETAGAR
T1 sequence (P14489 20-266, species assumed): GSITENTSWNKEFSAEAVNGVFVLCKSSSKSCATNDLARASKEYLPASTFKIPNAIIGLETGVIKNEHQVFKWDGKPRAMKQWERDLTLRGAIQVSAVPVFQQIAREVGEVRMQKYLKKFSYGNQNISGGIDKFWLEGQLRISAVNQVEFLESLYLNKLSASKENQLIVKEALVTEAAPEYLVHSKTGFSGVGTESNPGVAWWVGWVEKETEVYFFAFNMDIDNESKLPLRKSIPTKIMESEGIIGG
T4 sequence (C7C422 29-270, looked up, species assumed): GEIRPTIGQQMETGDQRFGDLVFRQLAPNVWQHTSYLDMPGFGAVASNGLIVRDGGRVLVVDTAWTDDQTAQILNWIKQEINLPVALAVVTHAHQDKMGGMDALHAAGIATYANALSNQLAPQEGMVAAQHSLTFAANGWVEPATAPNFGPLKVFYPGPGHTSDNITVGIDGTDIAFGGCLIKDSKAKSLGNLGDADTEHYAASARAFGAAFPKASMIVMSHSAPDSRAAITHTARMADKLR
T2 sequence (P26918 28-254): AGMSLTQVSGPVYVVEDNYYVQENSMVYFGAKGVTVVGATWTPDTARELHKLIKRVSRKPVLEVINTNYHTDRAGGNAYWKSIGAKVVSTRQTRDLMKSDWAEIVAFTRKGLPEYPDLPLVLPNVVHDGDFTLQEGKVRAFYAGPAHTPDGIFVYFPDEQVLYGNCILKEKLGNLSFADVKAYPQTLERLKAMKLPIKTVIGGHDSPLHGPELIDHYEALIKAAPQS

In the case of `O=C(O)C[C@@H]1CC[C@H](NC(=O)Cc2cccs2)B(O)O1` [vaborbactam], the IC50 (as a rule, the concentration needed to halve the response being measured) in experiment [1] (100 mM aqueous sodium bicarbonate, read-out: IC50 OXA-10 (b)) is more than 400 µM; in experiment [1] (without sodium bicarbonate, read-out: IC50 OXA-10), more than 400 µM. For the same compound, the “inhibition of OXA-10 (in words)” value in experiment [1] is recorded as “not inhibited”.
`NCc1ccc(C(=O)N[C@H]2Cc3cccc(C(=O)O)c3OB2O)cc1` [CB2]: in experiment [2], the half-maximal inhibitory concentration (IC50) is more than 100 µM. Besides, the “IC50 L1” value in experiment [3] is “not inhibited[41]”.
On to `CO/N=C(\C(=O)N[C@@H]1C(=O)N2C(C(=O)[O-])=C(C[N+]3(C)CCCC3)CS[C@H]12)c1csc(N)n1` [Cef, cefepime], for which the MIC in experiment [4], in experiment [5] and in experiment [6] was more than 64 µg/mL in each case. Moreover, the “Cef/MEM MIC” value in experiment [5] (strain B68-1, Kp) was more than 64 μg mL^–1; in experiment [5] (strain IR43, Kp), more than 64 μg mL^–1; in experiment [6] (strain 91N, Ec), more than 64 μg mL^–1; in experiment [6] (strain IR57, Ec), more than 64 μg mL^–1.
As for `C[C@@H](O)[C@H]1C(=O)N2C(C(=O)O)=C(S[C@@H]3CN[C@H](C(=O)N(C)C)C3)[C@H](C)[C@H]12` [MEM, meropenem], the MIC in experiment [4], in experiment [5] and in experiment [6] was more than 64 µg/mL in each case. In addition, the “Cef/MEM MIC” value in experiment [5] (strain B68-1, Kp) is reported as more than 64 μg mL^–1; in experiment [5] (strain IR43, Kp), more than 64 μg mL^–1; in experiment [6] (strain 91N, Ec), more than 64 μg mL^–1; in experiment [6] (strain IR57, Ec), more than 64 μg mL^–1.
Take `NCCN[C@H]1CC[C@H](CC(=O)N[C@H]2Cc3cccc(C(=O)O)c3OB2O)CC1` [VNRX-5133, (R)-3-(2-(trans-4-((2-Aminoethyl)amino)cyclohexyl)acetamido)-2-hydroxy-3,4-dihydro-2H-benzo[e][1,2]oxaborinine-8-carboxylic Acid]: the “inhibition of subclass B3 MBL L1 (in words)” value in experiment [7] is recorded as “nor did it inhibit”. Moreover, the half-maximal inhibitory concentration (IC50) in experiment [7] (B3 MBL, FC5) is more than 10 µM. The “effect of variation in pre-incubation time on IC50, NDM-1” value in experiment [8] is given as “did not result in different IC50 values”.
